The record followed here is patent US10538497B2, “Compounds as indoleamine 2,3-dioxygenase inhibitors” (Merck Sharp & Dohme Corp., priority 2015, dated 2020).

In assay [1] the target is T1, IDO1 (Homo sapiens (Human), UniProt P14902). The experiment in a line: IDO1 Cellular Assay in Hela Cells Stimulated with IFNγ. The class given is cell-based. The settings on record: Hela cells stimulated with IFNγ 100 ng/mL; read-out: IDO1 HELA Cell Assay, IC50.
Assay [2] has as its target T1, IDO1. The experiment in a line: IDO1 Enzyme Assay. The settings on record: read-out: IDO1 Enzyme Assay, IC50; HIS-tagged recombinant IDO1, 40 nM.
The target in assay [3] is T1, IDO1. The experiment in a line: IDO1 Human Whole Blood Assay. It counts as cell-based. The settings on record: LPS and IFNγ 100 ng/mL, kynurenine by LC/MS/MS. On the procedure: IDO1 Human Whole Blood Assay
LPS and IFNγ was prepared in RPMI to a 10× of final conc. (1000 ng/mL), final concentration is 100 ng/mL.
Human whole blood was drawn in sodium heparin coated tubes from healthy internal donors. Two hundred fourty μL of blood was transferred to each of the wells of a v-bottom 96 well plate. Thirty μL of compound was transferred from intermediate dilution plate, and incubated for 15 min. […] from stimulants was then transferred to blood and mixed thoroughly. Plate was covered with breathable membrane and incubated at 37° C. for overnight (18 h).
On day 2 isotope labeled standard of kunurenine and tryptophan was made in water at 10× concentration and 30 μL was added to the blood at 3 μM final concentration. The assay plates were centrifuged at 300×G for 10 min with no brake to separate plasma from red blood cells. Sixty μL of plasma samples was removed without disturbing red blood cells. Plasma was diluted with RPMI in 1:1 ratio and proteins were precipitated out with two volume of Acetonitrile. The plates was centrifuged at 4000×G for 60 min. Twenty μL of supernatant was carefully transferred to a 384 well plate contain 40 μL of 0.1% formic acid in water and analysed by LC/MS/MS.
LC/MS/MS analyses were performed using Thermo Fisher's LX4-TSQ Quantum Ultra system. This system consists of four Agilent binary high-performance liquid chromatography (HPLC) pumps and a TSQ Quantum Ultra triple quadrupole MS/MS instrument. For each sample, 5 μL were injected onto an Atlantis T3 column column (2.1 mm×150 mm, 3 μm particle size) from Waters. The mobile phase gradient pumped at 0.8 mL/min was used to elute the analytes from the column at 25° C. The elution started at 0% B increasing linearly to 25% B at 6.5 min, holding at 25% for 1 min, re-equilibrating to 10 min. Mobile phase A consisted of 0.1% formic acid in water. Mobile phase B consisted of 0.1% of formic acid in acetonitrile. Data was acquired in positive mode using a HESI interface. The operational parameters for the TSQ Quantum Ultra instrument were a spray voltage of 4000 V, capillary temperature of 380° C., vaporizer temperature 400° C., shealth gas 60 arbitrary units, Aux gas 20 arbitrary units, tube lens 85 and collision gas 1.2 mTorr. SRM chromatograms of kynurenine (Q1: 209.2>Q3:94.0) and internal standard (Q1: 215.3>Q3:98.2) were collected for 90 sec. The peak area was integrated by Xcalibur Quan software. The ratios between the kynurenine generated in the reaction and 2D6-Kynurenine spiked-in internal standard were used to generate percentage inhibition and IC50 values. Compounds were titrated and IC50's were calculated by 4 parameter sigmoidal curve fitting formula.

Structures are written as SMILES.

T1 sequence (P14902 whole entry): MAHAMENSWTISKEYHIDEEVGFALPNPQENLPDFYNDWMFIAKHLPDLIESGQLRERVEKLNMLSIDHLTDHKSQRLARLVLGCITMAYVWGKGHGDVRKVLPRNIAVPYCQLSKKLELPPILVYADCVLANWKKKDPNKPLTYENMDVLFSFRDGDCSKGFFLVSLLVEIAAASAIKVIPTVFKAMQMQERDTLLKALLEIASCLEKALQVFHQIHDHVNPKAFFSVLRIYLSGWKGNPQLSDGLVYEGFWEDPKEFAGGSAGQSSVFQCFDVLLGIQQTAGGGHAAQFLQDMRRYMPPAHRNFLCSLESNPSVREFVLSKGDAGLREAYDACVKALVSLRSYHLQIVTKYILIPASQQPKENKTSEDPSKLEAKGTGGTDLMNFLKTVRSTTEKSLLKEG

With `O=C(CSc1nonc1/C(=N/O)Nc1ccc(F)c(Br)c1)NC[C@@H](O)CO` [Example 42, (R)-2-((4-(N-(3-bromo-4-fluorophenyl)-N′-hydroxycarbamimidoyl)-1,2,5-oxadiazol-3-yl)thio)-N-(2,3-dihydroxypropyl)acetamide], the half-inhibitory concentration (IC50) (in general, the point on the concentration scale where inhibition reaches its midpoint) at IDO1 [1] is 34.3 nM; at IDO1 [2] it was 47.7 nM; against IDO1 [3] it was 519 nM.

`NC(=O)NCCSc1nonc1/C(=N/O)Nc1ccc(F)c(Br)c1` [Example 46, N-(3-Bromo-4-fluorophenyl)-N′-hydroxy-4-((2-ureidoethyl)thio)-1,2,5-oxadiazole-3-carboximidamide]: the IC50 turned out to be 13.5 nM on IDO1 [1], 33.9 nM at IDO1 [2] and 239 nM on IDO1 [3].
